Data: PubChem BioAssay (NCI)
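Cultured in 96-well plates, cells were exposed to test compound for 48 hours across five concentrations. At the GI50, growth is halved. TGI is the concentration that stops growth completely.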

Tests used:
Assay in all cases: growth of human tumour cells (NCI), 48 h
786-0 renal = tested on: 786-0 renal
A498 renal = tested on: A498 renal
A549 NSCLC = tested on: A549 NSCLC
ACHN renal = tested on: ACHN renal
CAKI-1 renal = tested on: CAKI-1 renal
CCRF-CEM leukemia = tested on: CCRF-CEM leukemia
COLO 205 colon = tested on: COLO 205 colon
DU-145 prostate = tested on: DU-145 prostate
EKVX NSCLC = tested on: EKVX NSCLC
HCC-2998 colon = tested on: HCC-2998 colon
HCT-116 colon = tested on: HCT-116 colon
HCT-15 colon = tested on: HCT-15 colon
HL-60(TB) leukemia = tested on: HL-60(TB) leukemia
HOP-92 NSCLC = tested on: HOP-92 NSCLC
HS 578T breast = tested on: HS 578T breast
HT29 colon = tested on: HT29 colon
IGROV1 ovarian = tested on: IGROV1 ovarian
K-562 leukemia = tested on: K-562 leukemia
KM12 colon = tested on: KM12 colon
LOX IMVI melanoma = tested on: LOX IMVI melanoma
M14 melanoma = tested on: M14 melanoma
MCF7 breast = tested on: MCF7 breast
MDA-MB-231 breast = tested on: MDA-MB-231 breast
MDA-MB-435 = tested on: MDA-MB-435
MDA-N = tested on: MDA-N
MOLT-4 leukemia = tested on: MOLT-4 leukemia
NCI-H226 lung = tested on: NCI-H226 lung
NCI-H23 lung = tested on: NCI-H23 lung
NCI-H460 lung = tested on: NCI-H460 lung
NCI-H522 lung = tested on: NCI-H522 lung
NCI/ADR-RES ovarian = tested on: NCI/ADR-RES ovarian
OVCAR-3 ovarian = tested on: OVCAR-3 ovarian
OVCAR-5 ovarian = tested on: OVCAR-5 ovarian
OVCAR-8 ovarian = tested on: OVCAR-8 ovarian
PC-3 prostate = tested on: PC-3 prostate
RPMI-8226 leukemia = tested on: RPMI-8226 leukemia
RXF 393 renal = tested on: RXF 393 renal
SF-268 CNS = tested on: SF-268 CNS
SF-295 CNS = tested on: SF-295 CNS
SF-539 CNS = tested on: SF-539 CNS
SK-MEL-28 melanoma = tested on: SK-MEL-28 melanoma
SK-MEL-5 melanoma = tested on: SK-MEL-5 melanoma
SK-OV-3 ovarian = tested on: SK-OV-3 ovarian
SN12C renal = tested on: SN12C renal
SNB-75 CNS = tested on: SNB-75 CNS
SR leukemia = tested on: SR leukemia
SW-620 colon = tested on: SW-620 colon
T-47D breast = tested on: T-47D breast
TK-10 renal = tested on: TK-10 renal
U251 CNS = tested on: U251 CNS
UACC-257 melanoma = tested on: UACC-257 melanoma
UACC-62 melanoma = tested on: UACC-62 melanoma
UO-31 renal = tested on: UO-31 renal
HOP-62 NSCLC = tested on: HOP-62 NSCLC
MALME-3M melanoma = tested on: MALME-3M melanoma
OVCAR-4 ovarian = tested on: OVCAR-4 ovarian
SK-MEL-2 melanoma = tested on: SK-MEL-2 melanoma
BT-549 breast = tested on: BT-549 breast
SNB-19 CNS = tested on: SNB-19 CNS

## CC(=O)O[C@@H]1[C@H](OC2CCCCC2(c2ccccc2)c2ccccc2)O[N+]([O-])=CC12CCCCC2 (stereo partly drawn)
786-0 renal
  TGI: 26.2 µM
A498 renal
  TGI: 29.9 µM
A549 NSCLC
  TGI: 31.6 µM
ACHN renal
  TGI: 31.4 µM
CAKI-1 renal
  TGI: 27.5 µM
CCRF-CEM leukemia
  TGI: 15.7 µM
COLO 205 colon
  TGI: 33.7 µM
DU-145 prostate
  TGI: 32 µM
EKVX NSCLC
  TGI: 33.7 µM
HCC-2998 colon
  TGI: 32.6 µM
HCT-116 colon
  TGI: 32 µM
HCT-15 colon
  TGI: 30.7 µM
HL-60(TB) leukemia
  TGI: 5.65 µM
HOP-92 NSCLC
  TGI: 59.2 µM
HS 578T breast
  TGI: 43.3 µM
HT29 colon
  TGI: 36.2 µM
IGROV1 ovarian
  TGI: 41.4 µM
K-562 leukemia
  TGI: > 100 µM
KM12 colon
  TGI: 31.2 µM
LOX IMVI melanoma
  TGI: 46.2 µM
M14 melanoma
  TGI: 33.8 µM
MCF7 breast
  TGI: 33.9 µM
MDA-MB-231 breast
  TGI: 30 µM
MDA-MB-435
  TGI: 29.2 µM
MDA-N
  TGI: 36.7 µM
MOLT-4 leukemia
  TGI: > 100 µM
NCI-H226 lung
  TGI: 27.8 µM
NCI-H23 lung
  TGI: 22.2 µM
NCI-H460 lung
  TGI: 32.2 µM
NCI-H522 lung
  TGI: 35.2 µM
NCI/ADR-RES ovarian
  TGI: 30.5 µM
OVCAR-3 ovarian
  TGI: 28.1 µM
OVCAR-5 ovarian
  TGI: 29.4 µM
OVCAR-8 ovarian
  TGI: 59.2 µM
PC-3 prostate
  TGI: 22.6 µM
RPMI-8226 leukemia
  TGI: > 100 µM
RXF 393 renal
  TGI: 32.6 µM
SF-268 CNS
  TGI: 34.6 µM
SF-295 CNS
  TGI: 29.2 µM
SF-539 CNS
  TGI: 37.8 µM
SK-MEL-28 melanoma
  TGI: 27 µM
SK-MEL-5 melanoma
  TGI: 28.2 µM
SK-OV-3 ovarian
  TGI: 26.2 µM
SN12C renal
  TGI: 35.4 µM
SNB-75 CNS
  TGI: 29.4 µM
SR leukemia
  TGI: > 100 µM
SW-620 colon
  TGI: 31.6 µM
T-47D breast
  TGI: 39.4 µM
TK-10 renal
  TGI: 30.4 µM
U251 CNS
  TGI: 30.7 µM
UACC-257 melanoma
  TGI: 32 µM
UACC-62 melanoma
  TGI: 32.6 µM
UO-31 renal
  TGI: 31.3 µM

## CCOC(=O)NN(C(=O)OCC)c1ccc(N=Nc2ccc(OC)cc2)n1C
786-0 renal
  TGI: 97.9 µM
A498 renal
  TGI: 56.1 µM
A549 NSCLC
  TGI: 63.5 µM
ACHN renal
  TGI: 58.2 µM
COLO 205 colon
  TGI: 41.3 µM
EKVX NSCLC
  TGI: > 100 µM
HCC-2998 colon
  TGI: 83.6 µM
HCT-116 colon
  TGI: 34.4 µM
HCT-15 colon
  TGI: 39.1 µM
HL-60(TB) leukemia
  TGI: 50.5 µM
HOP-62 NSCLC
  TGI: 86.8 µM
HOP-92 NSCLC
  TGI: 78.5 µM
HS 578T breast
  TGI: > 100 µM
HT29 colon
  TGI: 58.3 µM
IGROV1 ovarian
  TGI: 87.2 µM
K-562 leukemia
  TGI: 71.4 µM
KM12 colon
  TGI: 76.9 µM
LOX IMVI melanoma
  TGI: 41.5 µM
M14 melanoma
  TGI: 50 µM
MALME-3M melanoma
  TGI: 62.7 µM
MCF7 breast
  TGI: 31.8 µM
MDA-MB-231 breast
  TGI: 65.5 µM
MDA-MB-435
  TGI: 56 µM
MDA-N
  TGI: 40.7 µM
MOLT-4 leukemia
  TGI: > 100 µM
NCI-H226 lung
  TGI: 97.2 µM
NCI-H23 lung
  TGI: > 100 µM
NCI-H522 lung
  TGI: 60.4 µM
NCI/ADR-RES ovarian
  TGI: 94.6 µM
OVCAR-3 ovarian
  TGI: 53.2 µM
OVCAR-4 ovarian
  TGI: > 100 µM
OVCAR-5 ovarian
  TGI: > 100 µM
OVCAR-8 ovarian
  TGI: > 100 µM
PC-3 prostate
  TGI: 53.4 µM
RPMI-8226 leukemia
  TGI: > 100 µM
RXF 393 renal
  TGI: > 100 µM
SF-295 CNS
  TGI: > 100 µM
SF-539 CNS
  TGI: 40.5 µM
SK-MEL-2 melanoma
  TGI: 29.4 µM
SK-MEL-5 melanoma
  TGI: 32.6 µM
SK-OV-3 ovarian
  TGI: > 100 µM
SN12C renal
  TGI: > 100 µM
SNB-75 CNS
  TGI: 46 µM
T-47D breast
  TGI: 76.2 µM
TK-10 renal
  TGI: > 100 µM
U251 CNS
  TGI: > 100 µM
UACC-257 melanoma
  TGI: 56.1 µM
UACC-62 melanoma
  TGI: > 100 µM
UO-31 renal
  TGI: 71 µM

## C=CC(=O)N[C@@H]1CN(c2nc(Nc3cn(C)nc3OC)c3ncn(C)c3n2)C[C@H]1F
786-0 renal
  GI50: 28.1 µM
  TGI: > 100 µM
A498 renal
  GI50: 16.4 µM
  TGI: 67.7 µM
A549 NSCLC
  GI50: 24.5 µM
  TGI: > 100 µM
ACHN renal
  GI50: 506 nM
  TGI: > 100 µM
BT-549 breast
  GI50: 28.6 µM
  TGI: > 100 µM
CAKI-1 renal
  GI50: 1220 nM
  TGI: > 100 µM
CCRF-CEM leukemia
  GI50: 39.4 µM
  TGI: > 100 µM
COLO 205 colon
  GI50: 17.6 µM
  TGI: 48.6 µM
DU-145 prostate
  GI50: 4.02 µM
  TGI: > 91.7 µM
EKVX NSCLC
  GI50: 273 nM
  TGI: 97.9 µM
HCC-2998 colon
  GI50: 47.8 µM
  TGI: > 100 µM
HCT-116 colon
  GI50: 27.3 µM
  TGI: > 100 µM
HCT-15 colon
  GI50: 39 µM
  TGI: > 100 µM
HL-60(TB) leukemia
  GI50: 27.8 µM
  TGI: 78.5 µM
HOP-62 NSCLC
  GI50: 26.2 µM
  TGI: > 100 µM
HOP-92 NSCLC
  GI50: 17.3 µM
  TGI: 70.7 µM
HS 578T breast
  GI50: 34 µM
  TGI: > 100 µM
HT29 colon
  GI50: 20.9 µM
  TGI: > 83.1 µM
IGROV1 ovarian
  GI50: 2610 nM
  TGI: > 72.6 µM
K-562 leukemia
  GI50: 42.9 µM
  TGI: > 100 µM
KM12 colon
  GI50: 33.6 µM
  TGI: > 100 µM
LOX IMVI melanoma
  GI50: 30 µM
  TGI: > 100 µM
M14 melanoma
  GI50: 18.7 µM
  TGI: 61.6 µM
MALME-3M melanoma
  GI50: 23.4 µM
  TGI: > 100 µM
MCF7 breast
  GI50: 17.7 µM
  TGI: > 100 µM
MDA-MB-231 breast
  GI50: 23.8 µM
  TGI: > 88.2 µM
MDA-MB-435
  GI50: 15.8 µM
  TGI: 38.5 µM
MOLT-4 leukemia
  GI50: 39 µM
  TGI: > 100 µM
NCI-H226 lung
  GI50: > 83 µM
  TGI: > 100 µM
NCI-H23 lung
  GI50: 27.5 µM
  TGI: > 100 µM
NCI-H460 lung
  GI50: 34.5 µM
  TGI: > 100 µM
NCI-H522 lung
  GI50: 33.5 nM
  TGI: 17.7 µM
NCI/ADR-RES ovarian
  GI50: > 100 µM
  TGI: > 100 µM
OVCAR-3 ovarian
  GI50: 19 µM
  TGI: > 88 µM
OVCAR-4 ovarian
  GI50: 26.7 µM
  TGI: > 100 µM
OVCAR-5 ovarian
  GI50: 11.5 µM
  TGI: > 100 µM
OVCAR-8 ovarian
  GI50: 33.6 µM
  TGI: > 100 µM
PC-3 prostate
  GI50: 60.1 µM
  TGI: > 100 µM
RPMI-8226 leukemia
  GI50: > 71.7 µM
  TGI: > 100 µM
RXF 393 renal
  GI50: 34.1 µM
  TGI: > 84.5 µM
SF-268 CNS
  GI50: 21.5 µM
  TGI: > 100 µM
SF-295 CNS
  GI50: 38.9 µM
  TGI: > 100 µM
SF-539 CNS
  GI50: 28.1 µM
  TGI: > 100 µM
SK-MEL-2 melanoma
  GI50: 26.1 µM
  TGI: 78.3 µM
SK-MEL-28 melanoma
  GI50: 50 µM
  TGI: > 100 µM
SK-MEL-5 melanoma
  GI50: 24.8 µM
  TGI: > 59.8 µM
SK-OV-3 ovarian
  GI50: 88.1 nM
  TGI: > 47.2 µM
SN12C renal
  GI50: 45.9 µM
  TGI: > 100 µM
SNB-19 CNS
  GI50: 27.1 µM
  TGI: > 100 µM
SNB-75 CNS
  GI50: 19.4 µM
  TGI: > 78 µM
SR leukemia
  GI50: 7.57 µM
  TGI: > 91.3 µM
SW-620 colon
  GI50: 26.9 µM
  TGI: > 100 µM
T-47D breast
  GI50: 1740 nM
  TGI: > 100 µM
TK-10 renal
  GI50: 66.4 nM
  TGI: 23.9 µM
U251 CNS
  GI50: 39.1 µM
  TGI: > 100 µM
UACC-257 melanoma
  GI50: 35.8 µM
  TGI: > 100 µM
UACC-62 melanoma
  GI50: 23.1 µM
  TGI: > 90.6 µM
UO-31 renal
  GI50: 10.9 µM
  TGI: > 100 µM
